{"source": "patent US20250367134A1", "about": "“PERIPHERALIZATION OF CENTRALLY-ACTING CANNABINOID-1 RECEPTOR ANTAGONISTS BY NANOPARTICLES FOR THE TREATMENT METABOLIC RELATED CONDITIONS” (Yissum Research Development Company of the Hebrew …, priority 2022, published 2025)", "key": {"[1]": {"details": "3 and 10 mg/kg; cited from earlier work"}, "serum protein": {"system": "serum protein", "details": "cited from earlier work"}, "[2]": {"assay": "Multi-parameter metabolic assessment (indirect calorimetry) in DIO mice", "assay_type": "in vivo", "details": "1 mg/kg/d ip, 28 days", "method": "The metabolic and activity profiles of the mice were assessed using the Promethion High-Definition Behavioral Phenotyping System (Sable Instruments, Inc., Las Vegas, NV, USA). Data acquisition and instrument control were performed using MetaScreen software version 2.2.18.0, and the obtained raw data were processed using ExpeData version 1.8.4, using an analysis script detailing all aspects of the data transformation. Mice with free access to food and water were subjected to a standard 12 h light/12 h dark cycle, which consisted of a 16 h acclimation period, followed by 24 h of sampling. Respiratory gases were measured by using the GA-3 gas analyzer (Sable Systems, Inc., Las Vegas, NV, USA), using a pull-mode, negative-pressure system. Airflow was measured and controlled by FR-8 (Sable Systems, Inc., Las Vegas, NV, USA), with a set flow rate of 2000 mL/min. Water vapor was continuously measured and its dilution effect on O2 and CO2 was mathematically compensated. The effective mass (eff.Mass) was calculated by ANCOVA analysis. The respiratory quotient (RQ) was calculated as the ratio between CO2 produced to O2 consumed, and the total energy expenditure (TEE) was calculated as VO2×(3.815+1.232×RQ), normalized to the effective body mass, and expressed as kcal/h/kg^eff.Mass. Fat oxidation (FO) was calculated as FO=1.69×VO2−1.69×VCO2 and expressed as g/d/kgeff.Mass. Ambulatory activity and position were monitored simultaneously with the collection of the calorimetry data using XYZ beam arrays with a beam spacing of 0.25 cm."}, "[3]": {"assay": "Chronic treatment of diet-induced obesity (DIO) mice: body weight, body composition, food intake, urine", "assay_type": "in vivo", "details": "1 mg/kg/d ip, 28 days", "from_the_text": "The experimental protocol used was approved by the Institutional Animal Care and Use Committee of the Hebrew University, which is an AAALAC International accredited institute. To generate diet-induced obesity (DIO; body weight>42 g), six-week-old male C57B1/6JHsd mice (Envigo, Israel) were fed either a high-fat diet (HFD; 60% of calories from fat, 20% from protein, and 20% from carbohydrates; Research Diet, D12492), or a standard diet (STD; 14% fat, 24% protein, 62% carbohydrates; NIH-31 rodent diet) for 16 weeks. […] Body-weight and food intake were measured daily. Total body fat and lean masses were determined by EchoMRI100H™ (Echo Medical Systems LLC, Houston, TX, USA). At 24 h, urine was collected one week before euthanasia using mouse metabolic cages (CCS2000 Chiller System, Hatteras Instruments, NC, USA). Mice were euthanized by cervical dislocation under anesthesia, and the kidneys, brain, liver, fat pads, spleen, lungs, and heart were removed and weighed, and samples were either snap-frozen or fixed in buffered 4% formalin. Trunk blood was collected to determine the biochemical parameters."}, "[4]": {"system": "genes associated with fatty-acid β-oxidation (Cpta1, Acadm, Echs1, Hadh, and Acaa2)", "assay": "CB1R antagonism in primary hepatocytes under lipotoxic conditions, qPCR", "assay_type": "cell-based, mouse", "details": "1 μM, 24 h, 0.5 mM O:P 2:1", "method": "Total RNA of mouse livers or primary hepatocytes was extracted using TRIzol (Invitrogen), followed by DNase I treatment (Invitrogen), and then reverse-transcribed using an Iscript cDNA kit (Bio-Rad). Real-time PCR was conducted using iTaq Universal SYBR Green Supermix (Bio-Rad) and the CFX connect ST system (Bio-Rad). The following Mus musculus genes were detected: Cpta1, Acadm, Echs1, Hadh, and Acaa2; all genes were normalized to β-actin.\nPrimary mouse hepatocytes were isolated by liberase perfusion as previously described. Briefly, the liver of anesthetized mice was first perfused with calcium-free Hanks balanced salt solution supplemented with HEPES and EDTA (HBSS, Biological Industries, Beit HaEmek, Cat #02-018-1A HEPES Cat #03-025-1B), followed by perfused liberase digestion (25 μg/mL liberase in HBSS; Biological Industries, Beit HaEmek, Cat #02-015-1A with 25 mM HEPES). After digestion, the hepatocytes were released by dissociation from the lobes (centrifuged at 50×g for 2 min at 4° C.). The pellet from the first centrifugation of hepatocytes was loaded on a 90% Percoll gradient (Sigma-Aldrich; Cat #GE17-0891-01) and centrifuged at 200×g for 10 min at 4° C. […]"}, "[5]": {"assay": "Blood and liver biochemistry and histopathology in DIO mice", "assay_type": "in vivo", "details": "1 mg/kg/d ip, 28 days", "method": "Serum levels of cholesterol, triglycerides, high-density lipoprotein (HDL), low-density lipoprotein (LDL), and alanine aminotransferase (ALT) were determined by using the Cobas C-111 chemistry analyzer (Roche, Switzerland). Serum insulin and leptin levels were measured by ELISAs (Merck, Cat #EZRMI-13K and #E6082-K, respectively). Fasting blood glucose was measured using a glucometer. Liver tissues were extracted as known, and their triglyceride content was determined using the Cobas C-111 chemistry analyzer (Roche, Switzerland).\nFive μm paraffin-embedded liver sections from 7 animals per group were stained with H&E staining. Liver images were captured with a Zeiss AxioCam ICc5 color camera mounted on a Zeiss Axio Scope.A1 light microscope and taken from 10 random 40× fields of each animal. Lipid staining was conducted using an Oil Red O staining kit (Cat #ab150678; Abcam) according to the manufacturer's protocol. Briefly, at a […] optimal cutting temperature (O.C.T) (Cat #4583; SciGen, Inc., Gardena, CA, USA), compound-embedded liver sections were placed in propylene glycerol, followed by an Oil Red O solution and hematoxylin staining. Stained sections were photographed as mentioned above and positive red areas were quantified in a blinded manner using Image J software with a minimum of 10 random liver sections per mouse."}, "[6]": {"details": "10 mg/kg; cited from earlier work"}, "[7]": {"assay": "Biodistribution of rimonabant in HFD-fed obese mice after chronic 28-day treatment", "assay_type": "in vivo", "details": "18 hr following the last injection, 1 mg/kg ip, 28 days", "method": "The NPs were suspended in 1×PBS (15-450 μg/mL), and the free drug was dissolved in 4% DMSO, 1% Tween 80, and saline (0.1-3.0 mg/mL). The mice were euthanized 1-, 4-, and 24-h post-injection. […] The mice were euthanized 18 h following the last injection. Blood was collected, and mice were perfused with 1×PBS (via the left ventricle until the effluent from the right atrium was clear of blood), and the brain, lungs, liver, kidneys, fat, and spleen were harvested.\nTissues and serum samples were processed as follows: Total proteins were precipitated with ice-cold acetone/Tris buffer (50 mM, pH 8.0). Then, the samples were homogenized in ice-cold methanol/Tris buffer (50 mM, pH 8.0, 1:1) containing AM251 10 μg/mL as an internal standard. […] Rimonabant levels in the samples were determined by liquid chromatography/tandem mass spectrometry (LC-MS/MS).\nThe analyses were conducted on a TSQ Quantum Access Max triple quadrupole mass spectrometer (Thermo Scientific, San Jose, CA, USA) coupled with an UHPLC system, which included a Dionex Pump and an Accela Autosampler (Thermo Scientific, San Jose, CA, USA). […] Rimonabant was detected in a positive ion mode using electron spray ionization (ESI) and the multiple reaction monitoring (MRM) mode of acquisition. […]"}, "[8]": {"assay": "Glucose tolerance (ipGTT) and insulin sensitivity tests (ipIST) in DIO mice", "assay_type": "in vivo", "details": "1 mg/kg/d ip, 28 days", "method": "Mice that underwent overnight fasting were injected with glucose (1.5 g/kg, ip), followed by a tail blood collection at 0, 15, 30, 45, 60, 90, and 120 minutes. The blood glucose levels were determined using a glucometer. The following day, the mice underwent fasting for 6 h before receiving insulin (0.75 U/kg, ip; Eli Lilly); their blood glucose levels were determined at the same intervals as above. The homeostasis model assessment insulin resistance (HOMA-IR) was calculated as ([μU/mL] X fasting plasma glucose [mmol/L]/22.5). The insulin sensitivity index (ISI) was calculated as 1/(glucose×insulin)×1000, with glucose expressed as mg/dL and insulin as mU/L."}}, "note": "Where a name gives a salt, the structure may show the parent alone.", "data": [{"compound": "Cc1c(C(=O)NN2CCCCC2)nn(-c2ccc(Cl)cc2Cl)c1-c1ccc(Cl)cc1", "note": "[free rimonabant, N-(piperidin-1-yl)-5-(4-chlorophenyl)-1-(2,4-dichlorophenyl)-4-methyl-1H-pyrazole-3-carboxamide hydrochloride]", "values": [{"measurement": "despair-like behavior in the Tail Suspension Test", "setting": "[1]", "value": "did not induce despair-like behavior"}, {"measurement": "serum protein binding", "setting": "serum protein", "value": "> 98", "unit": "%"}, {"measurement": "animal's activity profile", "setting": "[2]", "value": "without affecting"}, {"measurement": "fat oxidation (FO)", "setting": "[2]", "value": "upregulation"}, {"measurement": "oxygen consumption (VO2)", "setting": "[2]", "value": "upregulation"}, {"measurement": "total energy expenditure (TEE)", "setting": "[2]", "value": "upregulation"}, {"measurement": "body weight (overweightness)", "setting": "[3]", "value": "significantly reduced"}, {"measurement": "fat mass (adiposity)", "setting": "[3]", "value": "significantly reduced"}, {"measurement": "food intake", "setting": "[3]", "value": "without affecting"}, {"measurement": "lean mass", "setting": "[3]", "value": "increased"}, {"measurement": "expression levels of genes associated with fatty oxidation", "setting": "[4]", "value": "significantly upregulated"}, {"measurement": "HFD-induced fatty liver (liver weight, hepatic triglyceride content, hepatocyte ballooning, fat accumulation, serum ALT levels)", "setting": "[5]", "value": "completely reversed"}, {"measurement": "serum leptin levels", "setting": "[5]", "value": "significantly reduced"}, {"measurement": "depressive-like symptoms in the Forced Swim Test", "setting": "[6]", "value": "did not induce depressive-like symptoms"}, {"measurement": "levels of rimonabant in the brain", "setting": "[7]", "value": "Comparable low levels"}, {"measurement": "HOMA-IR", "setting": "[8]", "value": "reduced"}, {"measurement": "hyperinsulinemia", "setting": "[8]", "value": "reduced"}, {"measurement": "insulin sensitivity", "setting": "[8]", "value": "improved"}, {"measurement": "obesity-induced glucose intolerance", "setting": "[8]", "value": "reversed"}]}]}
